pIC50, pKd: −log10 of the molar value.
What was measured:
ACE2 = conditions: read-out: KD for binding to ACE2; cited from earlier work
SARS-CoV-2 spike protein = SARS-CoV-2 spike protein (Severe acute respiratory syndrome coronavirus 2, UniProt P0DTC2); assay: biochemical; type: binding
Vero E6 cells = type: cell-based; conditions: CCK-8
[1] = male, Sprague-Dawley, rat, in vivo
SARS-CoV-2 pseudovirus = type: cell-based
[2] = biological target: RBD of SARS-CoV-2 spike protein (Severe acute respiratory syndrome coronavirus 2, UniProt P0DTC2); assay: biochemical; type: binding
in vivo [3] = conditions: male, Sprague-Dawley, rat, po, 40 mg/kg
nsp7 = nsp7 (Severe acute respiratory syndrome coronavirus 2, UniProt P0DTD1); assay: biochemical; type: binding, SARS-CoV-2
nsp8 = nsp8 (Severe acute respiratory syndrome coronavirus 2, UniProt P0DTD1); assay: biochemical; type: binding, SARS-CoV-2
in vivo [4] = assay: in vivo; parameters: species or system rats; conditions: male, Sprague-Dawley, rat, po, 40 mg/kg

In the case of dalbavacin, the pKd (ACE2) is listed as 6.83.
For `C=C(C)[C@@H]1CC[C@]2(C(=O)O)CC[C@]3(C)[C@H](CC[C@@H]4[C@@]5(C)CC[C@H](O)C(C)(C)[C@@H]5CC[C@]43C)[C@@H]12` [betulinic acid], the pIC50 (SARS-CoV-2 spike protein) was 4.82 and the cytotoxicity (Vero E6 cells) was “remarkable cytotoxicity”.
With `CC1(C)[C@@H](O[C@H]2O[C@H](C(=O)O)[C@@H](O)[C@H](O)[C@H]2O[C@@H]2O[C@H](C(=O)O)[C@@H](O)[C@H](O)[C@H]2O)CC[C@]2(C)[C@H]3C(=O)C=C4[C@@H]5C[C@@](C)(C(=O)O)CC[C@]5(C)CC[C@@]4(C)[C@]3(C)CC[C@@H]12` [GA-gg, glycyrrhizic acid] the maximum plasma concentration [1] was 10.23 µM, the “activity in the pseudovirus system” value (SARS-CoV-2 pseudovirus) was “weak activities” and the “binding to RBD” value ([2]; SPR) was “very weak bindings”.
In the case of `C[C@H]1[C@H](C)CC[C@]2(C(=O)O)CC[C@]3(C)C(=CC[C@@H]4[C@@]5(C)CC[C@H](O)C(C)(C)[C@@H]5CC[C@]43C)[C@H]12` [ursolic acid], the pIC50 (SARS-CoV-2 spike protein) was 5.05 and the cytotoxicity (Vero E6 cells) was “remarkable cytotoxicity”.
`CC1(C)[C@@H](O)CC[C@]2(C)[C@H]3C(=O)C=C4[C@@H]5C[C@@](C)(C(=O)O)CC[C@]5(C)CC[C@@]4(C)[C@]3(C)CC[C@@H]12` [GA, glycyrrhetinic acid] gave a pIC50 (SARS-CoV-2 spike protein) of 4.96, an inhibition at 10 µM (SARS-CoV-2 spike protein; read-out: inhibition rate against SARS-CoV-2 spike protein by ELISA) of 51.9% and a half-life (in vivo [3]) of 9.91 h. The maximum plasma concentration [1] was 5.68 µM, the pKd (nsp7) was 3.42 and the pKd (nsp8) was 4.04. For the same compound, the “inhibitory activity in blocking, attachment and entry procedures” value (SARS-CoV-2 pseudovirus) was “significant inhibitory activities”, the pKd [2] was 5.63 and the Tmax (in vivo [4]) was 2 h. For the same compound, the half-life (in vivo [4]) was 18.2 h.
